Results: publication PMC10705938, “Discovery of Anti-Coronavirus Cinnamoyl Triterpenoids Isolated from Hippophae rhamnoides during a Screening of Halophytes from the North Sea and Channel Coasts in Northern France” (International Journal of Molecular Sciences, 2023)
≈ marks a conversion by molar mass, not a printed value. Where two headings read alike, the source gives them in different places.

Legend:
[1] = test system: SARS-CoV-2 spike pseudotyped virus; conditions: in vitro; cited from earlier work
HCoV-229E [2] = assay: HCoV-229E-Luc infection assay (luciferase) in Huh-7 cells; type: cell-based; conditions: Human coronavirus 229E, purified compounds
HCoV-229E [3] = assay: HCoV-229E-Luc infection assay (luciferase) in Huh-7/TMPRSS2 cells; type: cell-based; conditions: Human coronavirus 229E, purified compounds
SARS-CoV-2 = assay: microbe, parasite or virus in culture; type: cell-based; conditions: read-out: inhibition of SARS-CoV-2 (N protein levels)
in vitro = conditions: human, Huh-7 cells
Description: The cytotoxicity of 25 crude methanolic extracts was tested on Huh-7 cells using an [3-(4,5-dimethylthiazol-2-yl)-5-(3-carboxymethoxyphenyl)-2-(4-sulfophenyl)-2H-tetrazolium]- based (MTS) viability assay. Huh-7 cells were treated with two different concentrations of the crude methanolic extracts (25 and 100 μg/mL) for 24 h. Non-treated control cells were incubated with 0.1% dimethyl sulfoxide (DMSO) in the media.
Huh-7 cells and Vero-81 cells were seeded in 96-well plates and incubated with 100 μL of culture medium containing increasing concentrations of our compounds for 24 h. An MTS based viability assay (CellTiter 96 aqueous nonradioactive cell proliferation assay, Promega, Madison WI, USA) was performed, as recommended by the manufacturer. The absorbance of formazan at 490 nm was detected using ELx808 plate reader (BioTek Instruments Inc., Winooski, VT, USA). Each measurement was performed in triplicate.

SARS-CoV-2 Mpro enzyme = test system: SARS-CoV-2 Mpro enzyme; set-up: method as in PMID 35066300; conditions: cited from earlier work
Staphylococcus capitis = test system: Staphylococcus capitis; set-up: method as in PMID 11199141; conditions: cited from earlier work
Candida albicans = test system: Candida albicans; set-up: method as in PMID 11199141; conditions: cited from earlier work
hepatitis C virus = test system: hepatitis C virus; set-up: method as in PMID 30842319; conditions: cited from earlier work

| Compound | IC50 (HCoV-229E [2]) [µM] | IC50 (HCoV-229E [3]) [µM] | CC50 at 24 h (in vitro) [µM] | further results |
| --- | --- | --- | --- | --- |
| COc1cc(-c2oc3cc(O)cc(O)c3c(=O)c2O)ccc1O [isorhamnetin] | – | – | – | antiviral activity against SARS-CoV-2 spike pseudotyped virus [1]: displayed antiviral activity |
| CC1(C)CC[C@]2(C(=O)O)CC[C@]3(C)C(=CC[C@@H]4[C@@]5(C)CC[C@H](OC(=O)/C=C/c6ccc(O)c(O)c6)C(C)(C)[C@@H]5CC[C@]43C)[C@@H]2C1 [F4-2, 3-O-trans-caffeoyl-oleanolic acid] | 11.6 | 11.5 | 81.4 | inhibition at 50 µM (SARS-CoV-2; Severe acute respiratory syndrome coronavirus 2, 50 µM, Vero-81, 16 h, Western blot): 54% |
| C[C@H]1[C@H](C)CC[C@]2(C(=O)O)CC[C@]3(C)C(=CC[C@@H]4[C@@]5(C)C[C@@H](OC(=O)/C=C\c6ccc(O)cc6)[C@H](O)C(C)(C)[C@@H]5CC[C@]43C)[C@H]12 [F2-3, 3β-hydroxy-2α-cis-p-coumaryloxy-urs-12-en-28-oic acid] | 14.5 | 14.1 | 52.1 | – |
| C[C@H]1[C@H](C)CC[C@]2(C(=O)O)CC[C@]3(C)C(=CC[C@@H]4[C@@]5(C)C[C@@H](OC(=O)/C=C/c6ccc(O)cc6)[C@H](O)C(C)(C)[C@@H]5CC[C@]43C)[C@H]12 [F2-2, 3β-hydroxy-2α-trans-p-coumaryloxy-urs-12-en-28-oic acid] | 12 | 11.4 | 44.4 | – |
| CC1(C)CC[C@]2(C(=O)O)CC[C@]3(C)C(=CC[C@@H]4[C@@]5(C)C[C@@H](OC(=O)/C=C/c6ccc(O)cc6)[C@H](O)C(C)(C)[C@@H]5CC[C@]43C)[C@@H]2C1 [F2-1, 2-O-trans-p-coumaroyl-maslinic acid] | 8.6 | 9.1 | 39.9 | – |
| CC1(C)CC[C@]2(C(=O)O)CC[C@]3(C)C(=CC[C@@H]4[C@@]5(C)CC[C@H](OC(=O)/C=C/c6ccc(O)cc6)C(C)(C)[C@@H]5CC[C@]43C)[C@@H]2C1 [F7-1, 3-O-trans-p-coumaroyl-oleanolic acid] | 11.4 | 10.7 | 39.3 | inhibition at 50 µM (SARS-CoV-2; Severe acute respiratory syndrome coronavirus 2, 16 h): 55.5% |
| C[C@H]1[C@H](C)CC[C@]2(C(=O)O)CC[C@]3(C)C(=CC[C@@H]4[C@@]5(C)CC[C@H](O)C(C)(C)[C@@H]5CC[C@]43C)[C@H]12 [UA, ursolic acid] | – | – | – | inhibition of SARS-CoV-2 Mpro enzyme activity (SARS-CoV-2 Mpro enzyme): successfully inhibited its activity |
| CC1(C)CC[C@]2(C(=O)O)CC[C@]3(C)C(=CC[C@@H]4[C@@]5(C)C[C@@H](O)[C@H](OC(=O)/C=C/c6ccc(O)cc6)C(C)(C)[C@@H]5CC[C@]43C)[C@@H]2C1 (relative stereo) [3-β -O-(trans-p-coumaroyl)maslinic acid] | – | – | – | minimum inhibitory concentration (Staphylococcus capitis): 12.5 mg/L (≈ 20.2 µM); minimum inhibitory concentration (Candida albicans): 12.5 mg/L (≈ 20.2 µM) |
| C=Cc1c(C)c(O)cc2ccc3c(C)c(O)ccc3c12 [dehydrojuncusol] | – | – | – | inhibition of hepatitis C virus replication (hepatitis C virus): inhibitor of hepatitis C virus replication |
